Like-named read-outs stand apart in the source and are kept apart here.
Columns and labels:
[1] = target: Syk protein kinase (Homo sapiens (Human), UniProt P43405); experiment: In vitro evaluation of inhibitory activity against Syk protein kinase (HTRF KinEASE TK); type: biochemical
Description: Test purpose: to measure an inhibitory IC50 value of the compounds against Syk protein kinase.
Test material: Syk kinase (Invitrogen, PV3857) • DTT (Sigma#43815): dithiothreitol • ATP (Sigma#A7699): triphosadenine • MgCl2 (Sigma#63020): magnesium chloride • MnCl2 (Sigma#M1787): manganese chloride • EDTA (Invitrogen#15575-020): ethylenediaminetetraacetic acid • HEPES Buffer (Invitrogen#15630-080): zwitterionic sulfonic acid buffer • HTRF® KinEASE™ TK (Cisbio#62TK0PEC, 20000 tests): HTRF kinase kit • Low volume, 384-well, white polystyrene plate (Greiner#784075) • 384-well microplates (Greiner#781946) • Centrifuge (Eppendorf#5810R) • Micropipette (Eppendorf) • Pipette (Greiner) • Pipettor (Eppendorf) • Mutidorp injector • POD 810 Plate Assembler Fully Automatic Microplate Pretreatment System • Envision Reader […]

[2] = Pharmacokinetics in plasma and eye tissues of male SD rats after single administration of eye drop; type: in vivo; details: for half-life / AUC(0-t) / Cmax / Tmax / AUC(0-inf) / MRT inf / Kp / MRT last: rat, topical or ocular; for AUC(0-inf) / MRT inf: extrapolated; for MRT inf: read-out: MRT0-inf; for Kp: read-out: AUC ratio (tissue AUC0-last/plasma AUC0-last); for MRT last: read-out: MRT0-last
Method: Test purpose: to study pharmacokinetics of the compound in eye tissues of male SD rats after single administration of eye drop
Test material: SD rats (male, 7 to 10 weeks of age, WTLH/SLAC)
Test operation: In this test, 18 male SD rats were provided by Beijing Vital River Laboratory Animal Technology Co., Ltd., and were randomly divided into 6 groups (3 rats/group), and each group of animals were given […] (5 mg/mL for both eyes, 30 μL/eye) of OT202 eye drops during single administration. All animals were not fasted before administration.

[3] = SD (Sprague-Dawley), male SD rats, single eye drop 5 mg/mL, 30 μL/eye, both eyes, Aqueous humor of anterior chamber
[4] = SD (Sprague-Dawley), male SD rats, single eye drop 5 mg/mL, 30 μL/eye, both eyes, Bulbar conjunctiva
[5] = SD (Sprague-Dawley), male SD rats, single eye drop 5 mg/mL, 30 μL/eye, both eyes, Cornea
[6] = SD (Sprague-Dawley), male SD rats, single eye drop 5 mg/mL, 30 μL/eye, both eyes, Plasma
[7] = SD (Sprague-Dawley), male SD rats, single eye drop 5 mg/mL, 30 μL/eye, both eyes, Upper and lower eyelids
[8] = male SD rats, single eye drop 5 mg/mL, 30 μL/eye, both eyes, Aqueous humor of anterior chamber
[9] = male SD rats, single eye drop 5 mg/mL, 30 μL/eye, both eyes, Bulbar conjunctiva
[10] = male SD rats, single eye drop 5 mg/mL, 30 μL/eye, both eyes, Cornea
[11] = male SD rats, single eye drop 5 mg/mL, 30 μL/eye, both eyes, Plasma
[12] = male SD rats, single eye drop 5 mg/mL, 30 μL/eye, both eyes, Upper and lower eyelids

IC50 ([1]; ATP 2 μM): 25 nM | inhibitory activity against Syk ([1]; conclusion in words): good inhibitory activity | half-life ([2]; SD (Sprague-Dawley), both eyes, male SD rats, single eye drop 5 mg/mL, 30 μL/eye, Aqueous humor of anterior chamber, sampling range 6-24 h): 738 min | half-life ([2]; SD (Sprague-Dawley), both eyes, male SD rats, single eye drop 5 mg/mL, 30 μL/eye, Bulbar conjunctiva, sampling range 1-24 h, linear regression coefficient of elimination phase less than 0.9): 307 min | half-life ([2]; SD (Sprague-Dawley), both eyes, male SD rats, single eye drop 5 mg/mL, 30 μL/eye, Cornea, sampling range 1-24 h): 290 min | half-life ([2]; SD (Sprague-Dawley), both eyes, male SD rats, single eye drop 5 mg/mL, 30 μL/eye, Plasma, sampling range 1-6 h, linear regression coefficient of elimination phase less than 0.9): 288 min | half-life ([2]; SD (Sprague-Dawley), both eyes, male SD rats, single eye drop 5 mg/mL, 30 μL/eye, Upper and lower eyelids, sampling range 1-24 h): 567 min | AUC(0-t) [2, 3]: 0.657 µM·h | Cmax [2, 3]: 560 nM | Tmax [2, 3]: 30 min | AUC(0-inf) [2, 3]: 0.711 µM·h | AUC(0-t) [2, 4]: 15.5 µM·h | Cmax [2, 4]: 4510 nM | Tmax [2, 4]: 30 min | AUC(0-inf) [2, 4]: 16.4 µM·h | AUC(0-t) [2, 5]: 2.53 µM·h | Cmax [2, 5]: 1590 nM | Tmax [2, 5]: 30 min | AUC(0-t) [2, 6]: 0.00532 µM·h | Cmax [2, 6]: 1.23 nM | Tmax [2, 6]: 60 min | AUC(0-inf) [2, 6]: 0.00956 µM·h | AUC(0-t) [2, 7]: 65.5 µM·h | Cmax [2, 7]: 10400 nM | Tmax [2, 7]: 30 min | pharmacokinetic features, including eye-to-blood ratio, tissue exposure ([2]; conclusion in words): good pharmacokinetic features | AUC0-inf/AUC0-last (%) [2, 8]: 108% | Tlast [2, 8]: 24.0 h | AUC0-inf/AUC0-last (%) [2, 9]: 106% | Tlast [2, 9]: 24.0 h | AUC0-inf/AUC0-last (%) [2, 10]: 102% | Tlast [2, 10]: 24.0 h | AUC0-inf/AUC0-last (%) [2, 11]: 180% | Tlast [2, 11]: 6.00 h | AUC0-inf/AUC0-last (%) [2, 12]: 122% | AUC ratio (tissue AUC0-last/plasma AUC0-last) [2, 12]: 12300 | Tlast [2, 12]: 24.0 h | MRT inf [2, 8]: 6.27 h | Kp [2, 8]: 123 | MRT last [2, 8]: 3.35 h | MRT inf [2, 9]: 6.73 h | Kp [2, 9]: 2910 | MRT last [2, 9]: 5.28 h | AUC(0-inf) [2, 10]: 2.59 µM·h | MRT inf [2, 10]: 5.74 h | Kp [2, 10]: 476 | MRT last [2, 10]: 5.05 h | MRT inf [2, 11]: 7.39 h | MRT last [2, 11]: 2.98 h | AUC(0-inf) [2, 12]: 80 µM·h | MRT inf [2, 12]: 13.7 h | MRT last [2, 12]: 8.4 h
Structure (SMILES): c1cn2c(n1)c(Nc1ccc(N3CCOCC3)cc1)nc1ccc(-c3cn[nH]c3)cc12
